{
  "source": "patent US20070244199A1",
  "about": "(priority 2006, published 2007)",
  "key": {"[1]": {"system": "M. avium subspecies paratuberculosis (PTB)", "experiment": "BACTEC inhibition of PTB (paratuberculosis)", "format": "cell-based, Mycobacterium avium subspecies paratuberculosis", "settings": "for activity against PTB (BACTEC growth index over time): single agents at the highest concentration", "text": "The MIC was defined as the lowest inhibitor concentration that yielded a growth index change less than that of the 1:100 control bottle. A modification of this protocol was used for MIC determinations of MAC and M. avium subspecies paratuberculosis (Parrish, 2004). Susceptibilities and MIC determinations of M. tuberculosis isolates to isoniazid, streptomycin, ethambutol, rifampin, and pyrazinamide were done using standard BACTEC methods (Siddiqi, 1992). All primary drugs were purchased from Becton Dickinson (Sparks, Md.).\nThe inhibition assay was performed essentially as described in Example 1 for TB and BCG. Briefly, PTB inoculum was standardized by use of “seed vials” of a suspension of microorganisms in supplemented media. The suspension was vortexed with glass beads and then 0.3 ml to 0.5 ml was introduced into individual supplemented BACTEC 12B vials. Vials were subsequently incubated at 37° C. and the GI recorded until reaching 999. At that time, 0.3 ml of the “seed vial” was introduced into test and compound containing vials. Vials were then read at 24-hour intervals and the rest of the procedure followed as for TB and BCG. The MIC determination was the same as for TB and BCG."}, "M. bovis BCG": {"system": "M. bovis BCG", "experiment": "microbe, parasite or virus in culture", "format": "cell-based, Mycobacterium bovis BCG", "settings": "for MIC: Mycobacterium tuberculosis variant bovis BCG, BCG, read-out: minimum inhibitory concentration (MIC)"}, "[2]": {"experiment": "Pro-drug decomposition at acid and physiologic pH", "format": "physicochemical", "procedure": "At physiologic pH (or about 7.5), the molecule slowly breaks down (with a half-time of about 15 hours) to release DSA. This property would enhance the prolonged maintenance of plasma concentrations of the active drug. The MICs of these pro-drug molecules are 6.25 μg/ml (for the 10 carbon compound) and 12.5 μg/ml (for the 8 carbon compound)."}, "M. tuberculosis (H37Rv)": {"system": "M. tuberculosis (H37Rv)", "experiment": "BACTEC radiometric MIC determination against M. tuberculosis", "format": "cell-based", "settings": "Mycobacterium tuberculosis, read-out: MIC against M.tb"}, "mycobacteria": {"system": "mycobacteria", "experiment": "In vitro sterilizing model", "format": "cell-based"}, "[3]": {"system": "latent (hypoxic) mycobacteria", "experiment": "Killing of latent (hypoxic) mycobacteria in vitro", "format": "cell-based"}, "[4]": {"settings": "PTB strain #2, combination at 12.5 or 25.0 μg/ml each (FIG. 5)"}, "[5]": {"settings": "PTB strain #4, combination at 12.5 or 25.0 μg/ml each (FIG. 6)"}, "[6]": {"settings": "PTB strain #8, combination at 12.5 or 25.0 μg/ml each (FIG. 7)"}, "[7]": {"settings": "PTB strain #13, combination at 12.5 or 25.0 μg/ml each (FIG. 8)"}, "[8]": {"settings": "PTB strain #15, combination at 12.5 or 25.0 μg/ml each (FIG. 9)"}, "[9]": {"settings": "agent alone at 1.5 μg/ml (FIG. 1, FIG. 2)"}, "[10]": {"settings": "agent alone, DSA at 1/2, 1/4, or 1/8 of the MIC, NSA or OSA at the same concentrations as DSA (FIG. 1)"}},
  "note": "“Also recorded” adds a separate entry of the source.",
  "data": [
    {"smiles": "CCCCCCCCCS(=O)(=O)CC(N)=O", "note": "[NSA, n-nonanesulphonylacetamide]", "values": [
      {"measurement": "activity against PTB (BACTEC growth index over time)", "setting": "[1]; [4]", "value": "some activity"},
      {"measurement": "activity against PTB (BACTEC growth index over time)", "setting": "[1]; [5]", "value": "some activity"},
      {"measurement": "activity against PTB (BACTEC growth index over time)", "setting": "[1]; [6]", "value": "some activity"},
      {"measurement": "activity against PTB (BACTEC growth index over time)", "setting": "[1]; [7]", "value": "some activity"},
      {"measurement": "activity against PTB (BACTEC growth index over time)", "setting": "[1]; [8]", "value": "some activity"},
      {"measurement": "MIC, various strains of PTB", "setting": "[1]; agent alone (FIGS. 4-9)", "value": "considerably higher"},
      {"measurement": "MIC", "setting": "M. bovis BCG", "value": 3, "unit": "µg/mL"},
      {"measurement": "inhibition of growth of M. bovis BCG cells", "setting": "M. bovis BCG; [9]", "value": "ineffective"},
      {"measurement": "inhibition of growth of M. bovis BCG cells", "setting": "M. bovis BCG; [10]", "value": "no effect"}
    ]},
    {"smiles": "CCCCCCCCS(=O)(=O)CC(N)=O", "note": "[OSA, n-octanesulphonylacetamide]", "values": [
      {"measurement": "activity against PTB (BACTEC growth index over time)", "setting": "[1]; [4]", "value": "no activity"},
      {"measurement": "activity against PTB (BACTEC growth index over time)", "setting": "[1]; [5]", "value": "no activity"},
      {"measurement": "activity against PTB (BACTEC growth index over time)", "setting": "[1]; [6]", "value": "no activity"},
      {"measurement": "activity against PTB (BACTEC growth index over time)", "setting": "[1]; [7]", "value": "no activity"},
      {"measurement": "activity against PTB (BACTEC growth index over time)", "setting": "[1]; [8]", "value": "no activity"},
      {"measurement": "MIC, various strains of PTB", "setting": "[1]; agent alone (FIGS. 4-9)", "value": "considerably higher"},
      {"measurement": "MIC", "setting": "M. bovis BCG", "value": 6.25, "unit": "µg/mL"},
      {"measurement": "inhibition of growth of M. bovis BCG cells", "setting": "M. bovis BCG; [9]", "value": "ineffective"},
      {"measurement": "inhibition of growth of M. bovis BCG cells", "setting": "M. bovis BCG; [10]", "value": "no effect"}
    ]},
    {"smiles": "CCCCCCCCCCS(=O)(=O)CC(=O)NCN1CCOCC1", "note": "[10 carbon compound]", "values": [
      {"measurement": "decomposition in acid pH", "setting": "[2]; acid pH", "value": "resists decomposition"},
      {"measurement": "half-time of breakdown to release DSA", "setting": "[2]; physiologic pH (or about 7.5)", "value": "about 15 hours"},
      {"measurement": "MIC", "setting": "M. tuberculosis (H37Rv)", "value": 6.25, "unit": "µg/mL"}
    ]},
    {"smiles": "CCCCCCCCCCS(=O)(=O)CC(N)=O", "note": "[DSA, n-decanesulphonylacetamide]", "values": [
      {"measurement": "activity in an in vitro sterilizing model", "setting": "mycobacteria", "value": "active"},
      {"measurement": "MIC", "setting": "[1]; Mycobacterium avium, agent alone (FIGS. 4-9), read-out: MIC, various strains of PTB", "value": "≥ 25", "unit": "µg/mL"},
      {"measurement": "activity against PTB (BACTEC growth index over time)", "setting": "[1]; [4]", "value": "some activity"},
      {"measurement": "activity against PTB (BACTEC growth index over time)", "setting": "[1]; [5]", "value": "some activity"},
      {"measurement": "activity against PTB (BACTEC growth index over time)", "setting": "[1]; [6]", "value": "some activity"},
      {"measurement": "activity against PTB (BACTEC growth index over time)", "setting": "[1]; [8]", "value": "some activity"},
      {"measurement": "MIC", "setting": "M. bovis BCG", "value": 1.5, "unit": "µg/mL"},
      {"measurement": "inhibition of growth of M. bovis BCG cells", "setting": "M. bovis BCG; [9]", "value": "some activity; also recorded: inhibit the growth"},
      {"measurement": "inhibition of growth of M. bovis BCG cells", "setting": "M. bovis BCG; [10]", "value": "no effect"},
      {"measurement": "killing of latent (hypoxic) mycobacteria in vitro", "setting": "[3]", "value": "kill latent (hypoxic) mycobacteria"},
      {"measurement": "MIC", "setting": "M. tuberculosis (H37Rv)", "value": "~1", "unit": "µg/mL"}
    ]}
  ]
}
